How the values were obtained:
Experiment in all cases: relative viability (nuclei count vs DMSO), 5 days (fraction); higher = more cells survive
Trametinib + Olaparib = compound: CC(=O)Nc1cccc(-n2c(=O)n(C3CC3)c(=O)c3c(Nc4ccc(I)cc4F)n(C)c(=O)c(C)c32)c1 [Trametinib] + O=C(c1cc(Cc2n[nH]c(=O)c3ccccc23)ccc1F)N1CCN(C(=O)C2CC2)CC1 [Olaparib] (partner 8 µM)
Outline: (§1)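 Relative viability divides the nuclei count in treated wells by that in vehicle wells. Lung cancer cell lines were seeded in 1536-well plates, dosed by pin tool the next day, and fixed and stained after 5 days in one step with final 0.05% Triton X-100, 1% formaldehyde and 1 ug/ml Hoechst. Dosing was a single drug or a fixed anchor-drug dose plus five library-drug doses (not always all listed) in √10 steps, and values are medians of duplicate plates imaged at 4×.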

[1] = compound: CN1C=C(C2=CC=CC=C21)/C=C\3/C4=C(C=CC=N4)NC3=O + NC(=O)Nc1cc(-c2cccc(F)c2)sc1C(=O)N[C@H]1CCCNC1 [AZD7762] (partner 0.2 µM)
Outline: as §1

[2] = compound: CN1C=C(C2=CC=CC=C21)/C=C\3/C4=C(C=CC=N4)NC3=O + COc1cccc2cc(-c3nc([C@H]4CC[C@H](C(=O)O)CC4)n4ncnc(N)c34)[nH]c12 [OSI-027] (partner 0.5 µM)
Outline: as §1

Trametinib + Luminespib = compound: CC(=O)Nc1cccc(-n2c(=O)n(C3CC3)c(=O)c3c(Nc4ccc(I)cc4F)n(C)c(=O)c(C)c32)c1 [Trametinib] + CCNC(=O)c1noc(-c2cc(C(C)C)c(O)cc2O)c1-c1ccc(CN2CCOCC2)cc1 [Luminespib] (partner 0.01 µM)
Outline: as §1

Cell Line | relative viability (Trametinib + Olaparib; first compound 0.0025 µM) | relative viability (Trametinib + Olaparib; first compound 0.007906 µM) | relative viability (Trametinib + Olaparib; first compound 0.025 µM) | relative viability (Trametinib + Olaparib; first compound 0.07906 µM) | relative viability (Trametinib + Olaparib; first compound 0.25 µM) | relative viability ([1]; first compound 0.02 µM) | relative viability ([1]; first compound 0.06325 µM) | relative viability ([1]; first compound 0.2 µM) | relative viability ([1]; first compound 0.6325 µM) | relative viability ([1]; first compound 2 µM) | relative viability ([2]; first compound 0.02 µM) | relative viability ([2]; first compound 0.06325 µM) | relative viability ([2]; first compound 0.2 µM) | relative viability ([2]; first compound 0.6325 µM) | relative viability ([2]; first compound 2 µM) | relative viability (Trametinib + Luminespib; first compound 0.0025 µM) | relative viability (Trametinib + Luminespib; first compound 0.007906 µM) | relative viability (Trametinib + Luminespib; first compound 0.025 µM) | relative viability (Trametinib + Luminespib; first compound 0.07906 µM) | relative viability (Trametinib + Luminespib; first compound 0.25 µM)
H3255 | 0.559 | 0.533 | 0.476 | 0.461 | 0.411 | 1.02 | 0.86 | 0.848 | 0.954 | 0.844 | 0.676 | 0.627 | 0.532 | 0.621 | 0.53 | 1.07 | 0.928 | 0.581 | 0.601 | 0.236
NCI-H2126 | 0.801 | 0.822 | 0.742 | 0.753 | 0.615 | 1.01 | 0.899 | 0.864 | 1 | 1 | 0.605 | 0.657 | 0.6 | 0.697 | 0.612 | 0.871 | 0.754 | 0.509 | 0.731 | 0.564
LU99A | 0.292 | 0.277 | 0.261 | 0.263 | 0.247 | 0.372 | 0.435 | 0.345 | 0.331 | 0.377 | 0.298 | 0.303 | 0.282 | 0.255 | 0.299 | 0.297 | 0.241 | 0.187 | 0.189 | 0.151
HOP-62 | 0.395 | 0.377 | 0.417 | 0.376 | 0.125 | 0.569 | 0.559 |  | 0.919 | 0.774 | 0.712 | 0.873 | 0.645 | 0.875 | 0.846 | 0.933 | 0.754 | 0.533 | 0.361 | 0.173
HCC-15 | 0.766 | 0.39 | 0.447 | 0.369 | 0.3 | 1.11 | 1.13 | 1.37 | 1.22 | 1.31 | 0.656 | 0.568 | 0.582 | 0.651 | 0.552 | 0.313 | 0.186 | 0.157 | 0.165 | 0.192
HARA | 0.696 | 0.832 | 0.664 | 0.449 | 0.308 | 0.197 | 0.368 |  | 0.358 | 0.345 | 0.539 | 0.449 |  | 0.505 | 0.586 | 0.75 | 0.534 | 0.694 | 0.234 | 0.13
NCI-H1355 | 0.663 | 0.686 | 0.552 | 0.48 | 0.39 | 0.715 | 0.708 | 0.637 | 0.606 | 0.642 | 0.371 | 0.348 | 0.3 | 0.345 | 0.362 | 0.486 | 0.605 | 0.323 | 0.35 | 0.3
NCI-H727 | 0.714 | 0.617 | 0.565 | 0.363 | 0.398 | 0.575 | 0.563 | 0.405 | 0.591 | 0.511 | 0.57 | 0.553 | 0.408 | 0.657 | 0.58 | 0.297 | 0.314 | 0.291 | 0.244 | 0.225
NCI-H838 | 0.703 | 0.675 | 0.622 | 0.674 | 0.587 | 0.81 | 0.753 | 0.789 | 0.871 | 0.632 | 0.335 | 0.326 | 0.354 | 0.366 | 0.319 | 0.289 | 0.291 | 0.247 | 0.204 | 0.208
HCC-44 | 0.96 | 1.06 | 1.08 | 0.897 | 0.87 | 0.937 | 1.02 | 0.94 | 1 | 0.956 | 0.478 | 0.486 |  | 0.455 | 0.457 | 1.03 | 0.907 | 0.931 | 0.553 | 0.193
LK-2 | 0.654 | 0.619 | 0.81 | 0.51 | 0.293 | 0.173 | 0.278 | 0.162 | 0.32 | 0.271 |  |  | 0.184 | 0.195 | 0.211 | 0.159 | 0.183 | 0.223 | 0.161 | 0.191
HCC-827 | 0.612 | 0.571 | 0.563 | 0.507 | 0.337 | 0.202 | 0.187 |  | 0.246 | 0.215 | 0.771 | 0.662 |  | 0.804 | 0.721 | 0.63 | 0.24 | 0.219 | 0.228 | 0.153
EPLC-272H | 0.628 | 0.406 | 0.332 | 0.322 | 0.173 | 0.321 | 0.244 |  | 0.132 | 0.174 | 0.219 | 0.29 | 0.269 |  | 0.309 | 0.222 | 0.22 | 0.251 | 0.129 | 0.117
NCI-H358 | 0.47 | 0.303 | 0.186 | 0.185 | 0.127 | 0.531 | 0.494 | 0.338 | 0.488 | 0.548 | 0.756 | 0.67 | 0.768 | 0.851 | 0.689 | 0.264 | 0.18 | 0.132 | 0.107 | 0.11
ABC-1 | 0.821 | 0.725 | 0.977 | 0.752 | 1.13 | 0.889 |  |  | 0.708 | 0.874 | 0.683 | 0.461 | 0.273 | 0.4 | 0.533 | 0.665 | 0.819 | 0.446 | 0.307 | 0.439
NCI-H1395 | 0.441 | 0.458 | 0.419 | 0.463 | 0.392 | 0.385 | 0.374 | 0.364 | 0.407 | 0.403 | 0.604 | 0.613 | 0.445 | 0.669 | 0.601 | 0.616 | 0.703 | 0.691 | 0.775 | 0.403
NCI-H2085 | 0.766 | 0.659 | 0.558 | 0.638 | 0.615 | 0.97 | 1.03 | 0.968 | 0.956 | 0.947 | 0.897 | 0.717 | 0.597 | 0.716 | 0.67 | 0.415 | 0.325 | 0.263 | 0.288 | 0.329
